Assay results taken from the supplement of paper PMC4862054.

What was measured:
Test in all cases: normalised response (% of control), CellTox Green; higher = less cell death (100 = DMSO, 0 = benzethonium chloride kill control)
Details in all cases: incubation time: 72 h
BT-549 = system: BT-549
Procedure, shortened: (§1)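 Each value is the plate-normalised signal at one concentration of the series. Breast cancer cell lines (20 µl suspension) were incubated 72 h in 384-well plates with compound at 5 concentrations in 10-fold steps over a compound-specific 10,000-fold range. CellTox Green and then CellTiter-Glo were read, and each plate was scaled to 0.1 % DMSO (100) and a positive kill control (0).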

CAL-85-1 = system: CAL-85-1
Procedure, shortened: as §1

MDA-MB-231 = system: MDA-MB-231
Procedure, shortened: as §1

CAL-51 = system: CAL-51
Procedure, shortened: as §1

MDA-MB-453 = system: MDA-MB-453
Procedure, shortened: as §1

MDA-MB-436 = system: MDA-MB-436
Procedure, shortened: as §1

MDA-MB-468 = system: MDA-MB-468
Procedure, shortened: as §1

HCC1937 = system: HCC1937
Procedure, shortened: as §1

HCC1599 = system: HCC1599
Procedure, shortened: as §1

HDQ-P1 = system: HDQ-P1
Procedure, shortened: as §1

BT-474 = system: BT-474
Procedure, shortened: as §1

CAL-120 = system: CAL-120
Procedure, shortened: as §1

HCC1143 = system: HCC1143
Procedure, shortened: as §1

Hs578T = system: Hs578T
Procedure, shortened: as §1

DU-4475 = system: DU-4475
Procedure, shortened: as §1

MCF-10A = system: MCF-10A
Procedure, shortened: as §1

| SMILES | normalised response (BT-549) [%] | normalised response (CAL-85-1) [%] | normalised response (MDA-MB-231) [%] | normalised response (CAL-51) [%] | normalised response (MDA-MB-453) [%] | normalised response (MDA-MB-436) [%] | normalised response (MDA-MB-468) [%] | normalised response (HCC1937) [%] | normalised response (HCC1599) [%] | normalised response (HDQ-P1) [%] | normalised response (BT-474) [%] | normalised response (CAL-120) [%] | normalised response (HCC1143) [%] | normalised response (Hs578T) [%] | normalised response (DU-4475) [%] | normalised response (MCF-10A) [%] |
| --- | --- | --- | --- | --- | --- | --- | --- | --- | --- | --- | --- | --- | --- | --- | --- | --- |
| Cc1c(CN2CCN(C(=O)[C@H](C)O)CC2)sc2c(N3CCOCC3)nc(-c3cnc(N)nc3)nc12 [GDC-0980] (10000 nM) | 95.2 | 58 | 98.1 | 18 | 86.7 | 98.5 | 119 | 101 | 96.9 | 41.6 | 53.5 | 104 | 47 | 98.8 | 85.5 | 88.3 |
| Nc1cccc2c1CN(C1CCC(=O)NC1=O)C2=O (stereo unspecified) [Lenalidomide] (1000 nM) | 125 | 92.2 | 109 | 104 | 103 | 88.4 | 122 | 113 | 105 | 104 | 99.8 | 96.9 | 111 | 94.5 | 103 | 108 |
| Nc1cccc2c1CN(C1CCC(=O)NC1=O)C2=O (stereo unspecified) [Lenalidomide] (10000 nM) | 117 | 90.7 | 108 | 102 | 99.8 | 95.5 | 138 | 97.7 | 103 | 98.5 | 102 | 97.7 | 119 | 127 | 100 | 91.8 |
| C[C@]12O[C@H](C[C@]1(O)CO)n1c3ccccc3c3c4c(c5c6ccccc6n2c5c31)CNC4=O [Lestaurtinib] (100 nM) | 99.7 | 83.4 |  | 56.4 | 102 | 66.7 | 69.6 | 81.8 | 74.8 | 105 | 94 | 96.2 | 116 | 96.2 | 91.5 | 107 |
| C[C@]12O[C@H](C[C@]1(O)CO)n1c3ccccc3c3c4c(c5c6ccccc6n2c5c31)CNC4=O [Lestaurtinib] (1000 nM) | 50 | 21.5 | 89.2 | 111 | 104 | 51.6 | 107 | 89.6 | 57.5 | 76.4 | 77.2 | 65.5 | 73.5 | 25.3 | 71.7 | 66 |
| Nc1ccccc1NC(=O)c1ccc(CNc2nccc(-c3cccnc3)n2)cc1 [Mocetinostat] (1000 nM) | 103 | 101 | 81.3 | 67 | 99.2 | 66.7 | 62.9 | 105 | 83.2 |  | 96 | 95.2 | 98.2 | 59.8 | 93 | 106 |
| COc1nc(N)nc2c1ncn2[C@@H]1O[C@H](CO)[C@@H](O)[C@@H]1O [Nelarabine] (1000 nM) | 128 | 108 | 106 | 99.3 | 104 | 88.7 | 102 | 100 | 90.3 | 78.7 | 96.4 | 89 |  | 107 | 94.7 | 98.8 |
| O=C(CCBr)N1CCN(C(=O)CCBr)CC1 [Pipobroman] (1000 nM) | 98.2 | 106 | 96.7 | 106 | 90.5 | 102 | 84.6 | 93.2 | 93.6 | 100 | 100 | 98.9 |  | 91.2 | 101 | 103 |
| O=C(CCBr)N1CCN(C(=O)CCBr)CC1 [Pipobroman] (10000 nM) | 98.9 | 77.6 | 83.1 | 101 | 96.5 | 101 | 134 | 105 | 97.4 | 104 | 100 | 91.5 |  | 128 | 96.9 | 88.8 |
| C[C@]12C=CC(=O)C=C1CC[C@@H]1[C@@H]2[C@@H](O)C[C@@]2(C)[C@H]1CC[C@]2(O)C(=O)CO [Prednisolone] (1000 nM) | 116 | 98.9 | 142 | 113 |  | 54.9 | 156 | 122 | 100 |  | 99.6 | 98.7 | 112 | 104 | 102 | 101 |
| CNC(=O)c1cc(Oc2ccc(NC(=O)Nc3ccc(Cl)c(C(F)(F)F)c3)cc2)ccn1 [Sorafenib] (100 nM) | 114 | 107 | 101 | 87 | 95.1 | 105 | 118 | 92 | 93.7 | 67.2 | 96.8 | 99.5 | 83.6 |  | 99.9 | 99.8 |
| CC[C@@]1(O)C(=O)OCc2c1cc1n(c2=O)Cc2cc3c(CN(C)C)c(O)ccc3nc2-1 [Topotecan] (1000 nM) | 90.6 | 67.8 |  | 18.9 | 108 | 71 | -478 | 95.1 | 81.3 |  | 96.6 | 85 | 76.7 |  | 83.2 | 92.2 |
